Measured values as given in PMC7747594, “Protease-activated receptor-2 ligands reveal orthosteric and allosteric mechanisms of receptor inhibition” (Communications Biology, 2020).
Where “and” joins values, the source holds several entries; their conditions need not be identical. Equal values may be shown once. Values belong to the compound of their own block, whether it stands above or below them.

What was measured:
[1] = system: parental 1321N1 cells; assay: Ca^2+ flux assay, agonist mode, parental 1321N1 cells; type: cell-based; parameters: Ca2+ response (Fig 2c), individual replicate values: unit not given here; conditions: for Ca2+ response (Fig 2c), individual replicate values: control
Description: Cells were loaded with Fluo-8 NW calcium dye (AAT Bioquest) for 30 min at 37 °C before compounds in Hank’s balanced salt solution (HBSS, ThermoFisher Scientific) with 20 mM HEPES (ThermoFisher Scientific), 0.1% bovine serum albumin (BSA, Sigma) and 0.5% DMSO were added and simultaneously evaluated for changes in intracellular [Ca^2+] using FLIPR TETRA (Molecular Devices) to detect agonism. For each concentration, the difference between the maximum peak Ca^2+ response and baseline response is reported. […] Antagonism experiments were also carried out on 1321N1-PAR2[WT], 1321N1-PAR2[F154A], and 1321N1-PAR2[G157C] as described. Experiments with trypsin in 1321N1-hPAR2 cells were performed in the presence of 1 µM Vorapaxar (Chemtronica) to remove any interference of PAR1 activity. […] Antagonism experiments for CHO-hPAR2 and HT-29 cells were performed in 96-well plates at 30,000 cells/well. Cells were loaded with Fluo-3 AM calcium dye (Sigma-Aldrich) for 60 min at 37 °C in HBSS with 1% FBS, 0.2% pluronic acid, 20 mM HEPES and 2.5 mM probenecid prior to the addition of antagonist. The antagonist was pre-incubated for 60 min at 37 °C followed by the addition of bovine trypsin (30 nM) at EC80. Intracellular [Ca^2+] flux was measured using FLIPR TETRA (Molecular Devices) and the difference between the maximum peak Ca^2+ response and baseline response is reported.

[2] = system: PAR2 stabilised receptor (StaR); assay: Surface plasmon resonance (SPR) binding, single-cycle kinetics
Description: (§1) The SPR binding experiments were performed on a Biacore S200 optical biosensor unit (GE Healthcare) at 30 °C. Sensor chips Series S NTA (Research grade, GE Healthcare) were equilibrated at room temperature prior to use. The running buffer for protein tethering and subsequent ligand binding experiments was 50 mM HEPES, 250 mM NaCl, 0.1% (w/v) LMNG, 0.005% (w/v) CHS, 0.025% (w/v) CHAPS, pH 7.4, if not stated otherwise. The tethering of PAR2 was performed at a flow rate of 5 µl min^−1. The NTA surface was chosen to allow full control of the steric orientation of the tethered protein and was conditioned by a one-minute injection of a 350 mM EDTA solution (pH 8.3) followed by a one-minute injection of running buffer supplemented with 0.5 mM NiCl2. To allow for a covalent tethering after the initial capture step, the conditioned surface was activated for 7 min with 50 mM NHS and 200 mM EDC. This was immediately followed by an injection of PAR2 in running buffer at a concentration of 80–120 µg ml^−1 with a contact time of 5–10 min to achieve the desired densities of 8000–9000 RU. […] Reference surfaces were prepared accordingly, omitting the injection of protein over the activated reference surface. The subsequent binding experiments were all performed at a flow rate of 30 µl min^−1 and by employing the method of single-cycle kinetics. This approach involves the sequential injection of a compound concentration series without regeneration steps. A contact time of 60 s was selected, which was followed by a 30 min dissociation phase to allow for a proper estimation of the dissociation rate constant. Compounds were dissolved in DMSO to 10 mM and a digital dispenser HP D300 (Tecan) was used to set up the compound concentration series using 8 concentrations with a 2-fold dilution pattern. […] Prior to the analysis of compound binding, three running buffer blanks were injected to equilibrate the instrument. The data collection rate was set to 10 Hz and all experiments were repeated at least four times to allow for error estimations. Due to the low DMSO mismatch (maximum 0.1%) introduced by the compound addition, no solvent correction was required. To evaluate compound binding to the PAR-AZ8838 complex, the antagonist AZ8838 was supplemented into the running buffer at a concentration of 50 µM and the instrument was equilibrated for 1 h before performing the single-cycle kinetic study as described above. Similarly, binding of AZ2429 to the PAR-AZ3451 complex was investigated after addition of 1 µM AZ3451 to the running buffer followed by 1 h equilibrium period, while the addition of 10 µM AZ2429 to the running buffer was required to ensure >99% saturation for single-cycle kinetic study of AZ3451 binding to the PAR2-AZ2429 complex.
(§2) Prior to the fitting of the data, the reference-subtracted data was further analysed by subtracting a similar single-cycle kinetic experiment containing only buffer injections in order to correct for injection artefacts, systematic noise and instrument drift. This double-referenced data has been fitted using a simple 1:1 interaction model as described by Karlsson et al.[46] in order to extract kinetic and affinity data. All data were expressed as mean ± s.e.m. and further analysed using GraphPad Prism 8. Statistical differences were assessed using student’s t-tests (two-tailed) for data sets of two and one-way ANOVA for data sets of three. Significance was set at ^+p < 0.05, ^++p < 0.01, ^+++p < 0.001, ^++++p < 0.0001 compared to AZ3451, and *p < 0.05, **p < 0.01, ***p < 0.001, ****p < 0.0001 compared to AZ2429.

[3] = biological target: T1, PAR2 stabilised receptor (StaR) (Homo sapiens, UniProt P55085); assay: as above
T1 sequence (P55085 55-377): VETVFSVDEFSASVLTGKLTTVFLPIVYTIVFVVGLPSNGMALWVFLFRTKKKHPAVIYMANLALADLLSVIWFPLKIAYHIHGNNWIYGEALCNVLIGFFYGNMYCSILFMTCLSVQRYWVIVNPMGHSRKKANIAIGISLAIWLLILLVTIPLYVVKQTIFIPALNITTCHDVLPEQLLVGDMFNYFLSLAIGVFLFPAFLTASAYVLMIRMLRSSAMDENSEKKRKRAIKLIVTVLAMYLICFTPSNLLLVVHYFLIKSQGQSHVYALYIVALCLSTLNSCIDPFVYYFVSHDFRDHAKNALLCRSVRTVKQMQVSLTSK
Description: as §1, §2

- association kinetics slower than AZ3451 ([2]; SPR): around 100 fold
- dissociation rate decreased relative to AZ3451 ([2]; SPR): 5 fold
- weaker affinity than AZ3451 ([2]; SPR): 10 fold
- ka ([2]; apo-PAR2, 30 °C): 1.5 ± 0.1 × 10^4 (n = 4) M^−1 s^−1
- pKD ([2]; apo-PAR2, 30 °C): 6.89 ± 0.03 (n = 4)
- residence time ([2]; apo-PAR2, 30 °C): 523 ± 50 (n = 4) s
Compound: CNC(=O)[C@H]1CC[C@@H](NC(=O)[C@H](CC2CCCCC2)NC(=O)c2cn(Cc3ccccc3)nn2)c2ccccc21 [AZ2429]
- Ca^2+ mobilisation in parental 1321N1 cells [1]: No Ca^2+ mobilisation could be detected
- Ca2+ response (Fig 2c), individual replicate values ([1]; [compound],M -4.30103): -0.222 and -3.029 and 1.6687 and -8.186
- Ca2+ response (Fig 2c), individual replicate values ([1]; [compound],M -4.77815): -2.571 and -2.17 and -0.3366 and -1.253
- Ca2+ response (Fig 2c), individual replicate values ([1]; [compound],M -5.25527): 2.7 and 1.783 and -0.795 and 0.5801
- Ca2+ response (Fig 2c), individual replicate values ([1]; [compound],M -5.73239): 1.6114 and 0.4655 and 2.528 and 1.21
- Ca2+ response (Fig 2c), individual replicate values ([1]; [compound],M -6.20952): -1.884 and -0.222 and -1.998 and 1.6114
- Ca2+ response (Fig 2c), individual replicate values ([1]; [compound],M -6.68664): 5.507 and 2.986 and 0.6947 and 2.299
- Ca2+ response (Fig 2c), individual replicate values ([1]; [compound],M -7.16376): 5.851 and 0.8093 and -0.4512 and 3.674
- Ca2+ response (Fig 2c), individual replicate values ([1]; [compound],M -7.64088): -0.2793 and 2.6427 and 2.471 and 0.06446
- Ca2+ response (Fig 2c), individual replicate values ([1]; [compound],M -8.118): -2.571 and 1.726 and 3.502 and 0.5801
- Ca2+ response (Fig 2c), individual replicate values ([1]; [compound],M -8.59512): -3.717 and -6.009 and -11.1079 and -4.175

- reduction in affinity in presence of saturating AZ8838 ([3]; SPR): 3 fold
- residence time ([3]; SPR, apo-PAR2): about 2 min
- ka ([3]; apo-PAR2, 30 °C): 1.1 ± 0.6 × 10^6 (n = 4) M^−1 s^−1
- pKD ([3]; apo-PAR2, 30 °C): 7.96 ± 0.04 (n = 4)
- residence time ([3]; apo-PAR2, 30 °C): 116 ± 68 (n = 4) s
Compound: C[C@@H](C1CCCCC1)n1c(-c2cc3c(cc2Br)OCO3)nc2cc(C(=O)Nc3ccc(C#N)cc3)ccc21 [AZ3451]
